Source: patent publication US11319315B2, “Cyclohexyl acid triazole azoles as LPA antagonists” (BRISTOL-MYERS SQUIBB COMPANY, priority 2017, dated 2022)
Counter-ions that a name gives are not always drawn.

What follows are compounds tested against T1, human LPA1 (Homo sapiens, UniProt Q92633) (assay: LPA1 functional antagonist assay (LPA-induced calcium flux in CHO cells overexpressing human LPA1)). Conditions: inhibition of calcium flux induced by 10 nM LPA, CHO cells overexpressing human LPA1; read-out: hLPA1 IC50.
T1 construct: expressed in transfected cells; host or cells: Chinese hamster ovary (CHO) cells
T1 sequence (Q92633 whole entry): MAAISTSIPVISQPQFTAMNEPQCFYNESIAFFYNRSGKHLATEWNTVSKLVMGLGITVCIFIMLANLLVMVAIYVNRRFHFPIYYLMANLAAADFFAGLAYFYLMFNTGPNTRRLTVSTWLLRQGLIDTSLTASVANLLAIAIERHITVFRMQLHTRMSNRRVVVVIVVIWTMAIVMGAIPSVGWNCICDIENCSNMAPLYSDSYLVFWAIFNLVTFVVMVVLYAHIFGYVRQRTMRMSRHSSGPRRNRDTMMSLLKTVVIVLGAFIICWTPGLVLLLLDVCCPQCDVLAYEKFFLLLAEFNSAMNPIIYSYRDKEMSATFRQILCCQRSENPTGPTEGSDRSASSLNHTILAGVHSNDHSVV
Format: cell-based
Summary of the method: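 CHO cells overexpressing human LPA1, dye-loaded 30 min at 37 °C, then given compound (0.08 nM–5 μM final, 0.5% DMSO) in HBSS/20 mM HEPES/0.1% fatty-acid-free BSA for 20 min at room temperature before 10 nM LPA. IC50 as 50% inhibition of LPA-evoked calcium flux, 4-parameter logistic fit.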

Structure (SMILES) | IC50
Cc1nc(-c2nnn(C)c2CNc2noc(CCC3CCC3)n2)c(F)cc1O[C@H]1CCC[C@H](C(=O)O)C1 [Example 278, (1S,3S)-3-((6-(5-(((5-(2-cyclobutylethyl)-1,2,4-oxadiazol-3-yl)amino)methyl)-1-methyl-1H-1,2,3-triazol-4-yl)-5-fluoro-2-methylpyridin-3-yl)oxy)cyclohexane-1-carboxylic acid] | 0.03 µM
Cc1nc(-c2nnn(C)c2CNc2noc(CCC3CC3)n2)c(F)cc1O[C@H]1CCC[C@H](C(=O)O)C1 [Example 279, (1S,3S)-3-((6-(5-(((5-(2-cyclopropyl-ethyl)-1,2,4-oxadiazol-3-yl)amino)methyl)-1-methyl-1H-1,2,3-triazol-4-yl)-5-fluoro-2-methylpyridin-3-yl)oxy)cyclohexane-1-carboxylic acid] | 0.051 µM
CCCCc1nc(NCc2c(-c3nc(C)c(O[C@H]4CCC[C@H](C(=O)O)C4)cc3F)nnn2C)no1 [Example 280, (1S,3S)-3-((6-(5-(((5-butyl-1,2,4-oxadiazol-3-yl)amino)methyl)-1-methyl-1H-1,2,3-triazol-4-yl)-5-fluoro-2-methylpyridin-3-yl)oxy)cyclohexane-1-carboxylic acid] | 0.143 µM
Cc1nc(-c2nnn(C)c2CNc2noc(CCC(C)C)n2)c(F)cc1O[C@H]1CCC[C@H](C(=O)O)C1 [Example 281, (1S,3S)-3-((5-fluoro-6-(5-(((5-isopentyl-1,2,4-oxadiazol-3-yl)amino)methyl)-1-methyl-1H-1,2,3-triazol-4-yl)-2-methylpyridin-3-yl)oxy)cyclohexane-1-carboxylic acid] | 0.067 µM
Cc1nc(-c2nnn(C)c2CNc2noc(CC3CC3)n2)c(F)cc1O[C@H]1CCC[C@H](C(=O)O)C1 [Example 282, (1S,3S)-3-((6-(5-(((5-(cyclopropylmethyl)-1,2,4-oxadiazol-3-yl)amino)methyl)-1-methyl-1H-1,2,3-triazol-4-yl)-5-fluoro-2-methylpyridin-3-yl)oxy)cyclohexane-1-carboxylic acid] | 0.236 µM
Cc1nc(-c2nnn(C)c2CNc2noc(COC3CCC3)n2)ccc1O[C@H]1CCC[C@H](C(=O)O)C1 [Example 283, (1S,3S)-3-((6-(5-(((5-(cyclobutoxymethyl)-1,2,4-oxadiazol-3-yl)amino)methyl)-1-methyl-1H-1,2,3-triazol-4-yl)-2-methylpyridin-3-yl)oxy)cyclo-hexane-1-carboxylic acid, TFA salt] | 0.019 µM
CCCOCc1nc(NCc2c(-c3ccc(O[C@H]4CCC[C@H](C(=O)O)C4)c(C)n3)nnn2C)no1 [Example 284, (1S,3S)-3-((2-methyl-6-(1-methyl-5-(((5-(propoxymethyl)-1,2,4-oxadi-azol-3-yl)amino)methyl)-1H-1,2,3-triazol-4-yl)pyridin-3-yl)oxy)cyclo-hexane-1-carboxylic acid, TFA salt] | 0.024 µM
CC(C)CCc1nc(NCc2c(-c3ccc(O[C@H]4CCC[C@H](C(=O)O)C4)cn3)nnn2C)no1 [Example 285, (1 S,3 S)-3-((6-(5-(((5-isopentyl-1,2,4-oxadiazol-3-yl)amino)methyl)-1-methyl-1H-1,2,3-triazol-4-yl)pyridin-3-yl)oxy)cyclohexane-1-carboxylic acid] | 0.093 µM
Cn1nnc(-c2ccc(O[C@H]3CCC[C@H](C(=O)O)C3)cn2)c1CNc1noc(CCC2CC2)n1 [Example 286, (1S,3S)-3-((6-(5-(((5-(2-cyclopropyl-ethyl)-1,2,4-oxadiazol-3-yl)amino)methyl)-1-methyl-1H-1,2,3-triazol-4-yl)pyridin-3-yl)oxy)cyclohexane-1-carboxylic acid] | 0.01 µM
CCCCc1nc(NCc2c(-c3ccc(O[C@H]4CCC[C@H](C(=O)O)C4)cn3)nnn2C)no1 [Example 287, (1S,3S)-3-((6-(5-(((5-butyl-1,2,4-oxadiazol-3-yl)amino)methyl)-1-methyl-1H-1,2,3-triazol-4-yl)pyridin-3-yl)oxy)cyclohexane-1-carboxylic acid] | 0.124 µM
Cn1nnc(-c2ccc(O[C@H]3CCC[C@H](C(=O)O)C3)cn2)c1CNc1noc(CC2CCC2)n1 [Example 288, (1S,3S)-3-((6-(5-(((5-(cyclobutylmethyl)-1,2,4-oxadiazol-3-yl)amino)methyl)-1-methyl-1H-1,2,3-triazol-4-yl)pyridin-3-yl)oxy)cyclohexane-1-carboxylic acid] | 0.0341 µM
Cn1nnc(-c2ccc(O[C@H]3CCC[C@H](C(=O)O)C3)cn2)c1CNc1noc(C2CCCC2)n1 [Example 289, (1S,3S)-3-((6-(5-(((5-cyclopentyl-1,2,4-oxadiazol-3-yl)amino)methyl)-1-methyl-1H-1,2,3-triazol-4-yl)pyridin-3-yl)oxy)cyclohexane-1-carboxylic acid] | 0.0507 µM
Cn1nnc(-c2ccc(O[C@H]3CCC[C@H](C(=O)O)C3)cn2)c1CNc1noc(CCCC(F)(F)F)n1 [Example 292, (1S,3S)-3-((6-(1-methyl-5-(((5-(4,4,4-trifluorobutyl)-1,2,4-oxadi-azol-3-yl)amino)methyl)-1H-1,2,3-triazol-4-yl)pyridin-3-yl)oxy)cyclohexane-1-carboxylic acid] | 0.0487 µM
CC(C)c1nc(NCc2c(-c3ccc(O[C@H]4CCC[C@H](C(=O)O)C4)cn3)nnn2C)no1 [Example 293, (1S,3S)-3-((6-(5-(((5-isopropyl-1,2,4-oxadiazol-3-yl)amino)methyl)-1-methyl-1H-1,2,3-triazol-4-yl)pyridin-3-yl)oxy)cyclohexane-1-carboxylic acid] | 0.613 µM
Cn1nnc(-c2ccc(O[C@H]3CCC[C@H](C(=O)O)C3)cn2)c1CNc1noc(CCC2CCC2)n1 [Example 294, (1S,3S)-3-((6-(5-(((5-(2-cyclobutyl-ethyl)-1,2,4-oxadiazol-3-yl)amino)methyl)-1-methyl-1H-1,2,3-triazol-4-yl)pyridin-3-yl)oxy)cyclohexane-1-carboxylic acid] | 0.0334 µM
Cc1nc(-c2nnn(C)c2Cn2nnc(CC3CCC3)n2)ccc1O[C@H]1CCC[C@H](C(=O)O)C1 [Example 295, (1S,3S)-3-{[6-(5-{[5-(cyclobutyl-methyl)-2H-1,2,3,4-tetrazol-2-yl]methyl}-1-methyl-1H-1,2,3-triazol-4-yl)-2-methylpyridin-3-yl]oxy}cyclohexane-1-carboxylic acid] | 0.102 µM
Cc1nc(-c2nnn(C)c2Cn2nnc(CCC3CC3)n2)ccc1O[C@H]1CCC[C@H](C(=O)O)C1 [Example 296, (1S,3S)-3-{[6-(5-{[5-(2-cyclopropyl-ethyl)-2H-1,2,3,4-tetrazol-2-yl]methyl}-1-methyl-1H-1,2,3-triazol-4-yl)-2-methylpyridin-3-yl]oxy}cyclohexane-1-carboxylic acid] | 0.096 µM
Cc1nc(-c2nnn(C)c2Cn2nnc([C@H]3CCCO3)n2)ccc1O[C@H]1CCC[C@H](C(=O)O)C1 [Example 297, (1S,3S)-3-({2-methyl-6-[1-methyl-5-({5-[(2R)-oxolan-2-yl]-2H-1,2,3,4-tetrazol-2-yl}methyl)-1H-1,2,3-triazol-4-yl]pyridin-3-yl}oxy)cyclohexane-1-carboxylic acid] | 0.092 µM
Cc1nc(-c2nnn(C)c2Cn2nnnc2C(C)C)ccc1O[C@H]1CCC[C@H](C(=O)O)C1 [Example 298, (1S,3S)-3-{[2-methyl-6-(1-methyl-5-{[5-(propan-2-yl)-1H-1,2,3,4-tetrazol-1-yl]methyl}-1H-1,2,3-triazol-4-yl)pyridin-3-yl]oxy}cyclohexane-1-carboxylic acid] | 0.096 µM
Cc1nc(-c2nnn(C)c2Cn2nnc(C(C)C)n2)ccc1O[C@H]1CCC[C@H](C(=O)O)C1 [Example 299, (1S,3S)-3-{[2-methyl-6-(1-methyl-5-{[5-(propan-2-yl)-2H-1,2,3,4-tetrazol-2-yl]methyl}-1H-1,2,3-triazol-4-yl)pyridin-3-yl]oxy}cyclo-hexane-1-carboxylic acid] | 0.099 µM
Cc1nc(-c2nnn(C)c2Cn2nnc(COc3ccccc3)n2)ccc1O[C@H]1CCC[C@H](C(=O)O)C1 [Example 300, (1S,3S)-3-{[2-methyl-6-(1-methyl-5-{[5-(phenoxymethyl)-2H-1,2,3,4-tetrazol-2-yl]methyl}-1H-1,2,3-triazol-4-yl)pyridin-3-yl]oxy}cyclohexane-1-carboxylic acid] | 0.098 µM
Cc1cc(C)n(Cc2nnn(Cc3c(-c4ccc(O[C@H]5CCC[C@H](C(=O)O)C5)c(C)n4)nnn3C)n2)n1 [Example 301, (1S,3S)-3-({6-[5-({5-[(3,5-dimethyl-1H-pyrazol-1-yl)methyl]-2H-1,2,3,4-tetrazol-2-yl}methyl)-1-methyl-1H-1,2,3-triazol-4-yl]-2-methylpyridin-3-yl}oxy)cyclohexane-1-carboxylic acid] | 0.963 µM
CCCOCc1nnn(Cc2c(-c3ccc(O[C@H]4CCC[C@H](C(=O)O)C4)c(C)n3)nnn2C)n1 [Example 302, (1S,3S)-3-{[2-methyl-6-(1-methyl-5-{[5-(propoxymethyl)-2H-1,2,3,4-tetrazol-2-yl]methyl}-1H-1,2,3-triazol-4-yl)pyridin-3-yl]oxy}cyclohexane-1-carboxylic acid] | 0.063 µM
Cc1ccn(Cc2nnnn2Cc2c(-c3ccc(O[C@H]4CCC[C@H](C(=O)O)C4)c(C)n3)nnn2C)n1 [Example 303, (1S,3S)-3-({2-methyl-6-[1-methyl-5-({5-[(3-methyl-1H-pyrazol-1-yl)methyl]-1H-1,2,3,4-tetrazol-1-yl}methyl)-1H-1,2,3-triazol-4-yl]pyridin-3-yl}oxy)cyclohexane-1-carboxylic acid] | 0.951 µM
Cc1nc(-c2nnn(C)c2Cn2nnnc2COc2ccccc2)ccc1O[C@H]1CCC[C@H](C(=O)O)C1 [Example 304, (1S,3S)-3-{[2-methyl-6-(1-methyl-5-{[5-(phenoxymethyl)-1H-1,2,3,4-tetrazol-1-yl]methyl}-1H-1,2,3-triazol-4-yl)pyridin-3-yl]oxy}cyclohexane-1-carboxylic acid] | 0.124 µM
